Test results: US8211883B2, “Topical delivery of phthalocyanines” (priority 2004, dated 2012)

Legend:
[1] = system: chemically-induced benign skin papillomas; assay: PDT of chemically induced skin tumors; format: in vivo, SENCAR mice; settings: 0.5 and 1.0 mg/kg i.p. in DPPC liposomes
Experimental: 6-week-old female SENCAR mice received a single topical application of 5 μg DMBA in 0.2 mL acetone on the dorsal skin as tumor initiator. One week later, the animals were started on twice-weekly topical applications of 1 μg TPA in 0.2 mL acetone as tumor promoter. All of the animals developed tumors at 12 weeks. Mice that developed 4-5 tumors per animal averaging 5-8 mm in diameter and 2-5 mm in thickness were used. Pc IV, entrapped in DPPC liposomes was administered intraperitoneally at doses of either 0.5 or 1.0 mg/kg and 24 hrs later the tumor area was illuminated with light from an argon pumped dye laser tuned at 675 nm for a total light dose of 135 j/cm^2 (75 mW/cm^2). All possible controls were included; either the animals were untreated, treated only with laser light or treated only with Pc IV alone.

[2] = system: Chinese hamster V79-379 lung fibroblasts; assay: Growth delay of V79 cultures after phthalocyanine and red light; format: cell-based; settings: V79 cells, 0.5 μM, 18 hours, 12 kJ/m^2 red light; three day observation
Experimental: At the time of light exposure, there were approximately 1.5×10^5 cells per 25 cm^2 flask. Following irradiation, the HBSS was replaced by 10 mL of fresh complete growth medium, and the cultures were returned to the 37° C. incubator. At various times before and after irradiation, duplicate cultures were trypsinized and counted. Controls included untreated cells and cells treated with light alone or drug alone. In addition, in each experiment, the drug to be tested was compared to a standard treatment, i.e. 1 μM AlPcCl for 18 hours followed by 12 kJ/m^2 light.
The inhibition of V79 culture growth was measured during a three day period following red light irradiation (12 kJ/m^2) of phthalocyanine-pretreated cells. With each of the active compounds, as well as with AlPcCl, there was an initial decrease in cell density, as dead cells became detached from the monolayer. Thereafter, the cell number per flask increased, as living cells grew and divided. The time for the cell density to recover to the level at the time of light exposure was considered the growth delay. […] The ratio of the growth delay for the test photosensitizer and the growth delay for AlPcCl measured in the same experiment is recorded in Table 1. There was less inhibition of culture growth when cells were exposed to compounds III, V, or VI as expected from the poor cellular uptake of these drugs.

[3] = system: human skin keratome biopsies; assay: Penetration of topically applied PcIV and salts into human skin, confocal fluorescence microscopy; format: in vitro ADME; settings: for laser transmission at which maximum fluorescence was detectable: fluorescence inversely proportional to laser transmission, listed as PcIV
Experimental: Human skin absorption of PcIV was analyzed by fluorescence confocal microscopy. PcIV fluorescence, upon activation with a HeNe laser at 633 nm, was visualized using a 650 long pass filter. Briefly, 0.4 mm thick human keratomes were removed from the gluteal region of healthy volunteers and divided into 1.5 cm×1.5 cm squares of skin. Upon application of PcIV to the epidermis in a vehicle of ethanol and propylene glycol, visualization of penetration of PcIV was achieved by fluorescence. Pc 4 was then prepared as PcIV-pyruvate and PcIV-HCl and applied in the same vehicle as Pc 4 to the epidermis. Three concentrations, namely, 0.1 mg/mL, 0.05 mg/mL, and 0.01 mg/mL were tested per PcIV formulation. Skin was incubated at 37° C. for 1, 2, and 4 hours, along with vehicle controls. […] Maximum PcIV fluorescence was detectable using laser transmission of 3% for the 0.1 mg/mL and 30% for the 0.01 mg/mL. Both PcIV.pyruvate and PcIV.HCl however could be visualized with a laser transmission of 2-3% for the 0.1 mg/mL and 7-9% for the 0.01 mg/mL concentrations.
The ability of PcIV and the newly prepared PcIV salts (HCl and pyruvate) to penetrate into the epidermis of keratome derived biopsies was examined. The time course of penetrance as well as the effect of dose of the PcIV compounds were evaluated. PcIV and the PcIV.HCl and PcIV.pyruvate salts were resuspended in ethanol (100%, 1 part PcIV, 499 parts ethanol) and then diluted to final concentrations in a 30% Propylene Glycol 70% Ethanol mixture.
Keratome biopsies of normal skin were obtained from normal volunteers after written consent according to UHHS IRB protocol # 05-95-03. To date, seven experiments have been performed. The range of age for volunteers was 20-40 yrs. Individuals represented Fitzpatrick skin types between I-III. Skin biopsies were held in PBS following the keratome procedure until processed for PcIV Application (less than 1 hr). The keratome skin samples (1.5 cm^2) were overlayed onto sterile gauze in 80 mm tissue culture petri dishes epidermal side down. PcIV compounds were then applied to the corners of the sterile gauze and allowed to “wick” through the gauze and contact the epidermis of the skin for the indicated times. Following the incubation, the tissue was removed from the gauze and washed three times in phosphate buffered saline and held, in PBS, until analysis by confocal microscopy. Confocal images were acquired using a 20×N.A. 0.5 water immersion objective on a Zeiss 510 confocal microscope. PcIV fluorescence was elicited using a 633 nm wavelength for excitation, and collected with a 633 nm dichroic mirror and 650 nm long-pass filter.

SMILES: CN(C)CCC[Si](C)(C)O[Si]1(O)n2c3c4ccccc4c2N=C2N=C(N=c4c5ccccc5c(n41)=NC1=NC(=N3)c3ccccc31)c1ccccc12 (centres unmarked) [Compound IV, HOSiPcOSi(CH3)2(CH2)3N(CH3)2]
- tumor volume after PDT ([1]; 675 nm 135 j/cm^2 24 hrs later): eventually decreased to 0 volume
- tumor return ([1]; length of the study 34 days): did not return for the length of the study
- Growth Delay (12 kj/m^2), Efficiency Relative to 1 μM (AlPcCl) [2]: >3
- laser transmission at which maximum fluorescence was detectable ([3]; 0.01 mg/mL in ethanol and propylene glycol): 30%
- laser transmission at which maximum fluorescence was detectable ([3]; 0.1 mg/mL in ethanol and propylene glycol): 3%
- penetration into skin ([3]; 0.01-0.1 mg/mL, 1, 2 and 4 hours at 37° C.): successfully penetrated the skin to the basal layer in a dose dependent fashion
- lowest concentration tested at which penetration is demonstrated ([3]; propylene glycol vehicle): 0.01 mg/mL
- time to effective penetration through intact human stratum corneum ([3]; propylene glycol/ethanol vehicle): within one hour
